Legend:
Type in all cases: functional
[1] = tested on: MCF7; assay: Cytotoxicity against human MCF7 cells assessed as cell growth at 1 mM after 1 to 11 days by MTT assay; details: read-out: Activity
[2] = tested on: NCI-H522; assay: Cytotoxicity against human NCI-H522 cells after 1 to 11 days by MTT assay
[3] = tested on: NCI-H322M; assay: Cytotoxicity against human NCI-H322M cells assessed as cell growth at 100 uM after 1 to 11 days by MTT assay; details: read-out: Activity
[4] = tested on: CCRF-CEM; assay: Cytotoxicity against human CCRF-CEM cells assessed as cell growth at 0.1 uM after 1 to 11 days by MTT assay; details: read-out: Activity
[5] = tested on: MDA-MB-468; assay: Cytotoxicity against human MDA-MB-468 cells assessed as cell growth at 1 mM after 1 to 11 days by MTT assay; details: read-out: Activity
[6] = tested on: SF-539; assay: Cytotoxicity against human SF539 cells assessed as cell growth at 1 uM after 1 to 11 days by MTT assay; details: read-out: Activity
[7] = tested on: SNB-19; assay: Cytotoxicity against human SNB19 cells assessed as cell growth at 0.1 uM after 1 to 11 days by MTT assay; details: read-out: Activity
[8] = tested on: UACC-62; assay: Cytotoxicity against human UACC62 cells after 1 to 11 days by MTT assay
[9] = tested on: IGROV-1; assay: Cytotoxicity against human IGROV1 cells assessed as cell growth at 1 mM after 1 to 11 days by MTT assay; details: read-out: Activity
[10] = tested on: UACC-62; assay: Cytotoxicity against human UACC62 cells assessed as cell growth at 0.1 uM after 1 to 11 days by MTT assay; details: read-out: Activity
[11] = tested on: HOP-92; assay: Cytotoxicity against human HOP92 cells assessed as cell growth at 0.1 uM after 1 to 11 days by MTT assay; details: read-out: Activity
[12] = tested on: 786-0; assay: Cytotoxicity against human 786-0 cells assessed as cell growth at 100 uM after 1 to 11 days by MTT assay; details: read-out: Activity
[13] = tested on: NCI-H226; assay: Cytotoxicity against human NCI-H226 cells assessed as cell growth at 1 mM after 1 to 11 days by MTT assay; details: read-out: Activity
[14] = tested on: NCI-H226; assay: Cytotoxicity against human NCI-H226 cells assessed as cell growth at 10 uM after 1 to 11 days by MTT assay; details: read-out: Activity
[15] = tested on: NCI-H460; assay: Cytotoxicity against human NCI-H460 cells assessed as cell growth at 0.1 uM after 1 to 11 days by MTT assay; details: read-out: Activity
[16] = tested on: NCI/ADR-RES; assay: Cytotoxicity against human NCI/ADR-RES cells assessed as cell growth at 100 uM after 1 to 11 days by MTT assay; details: read-out: Activity
[17] = read-out: LC50 (the source's name)

In the case of `O=C1Nc2ncccc2/C1=C1/Nc2ccccc2/C1=N\O`, the growth at 1000 µM [1] is reported as 41%, the GI50 [2] is reported as > 100 µM and the TGI [2] is reported as > 100 µM. The CC50 [2, 17] was > 100 µM, the growth at 100 µM [3] was 8% and the growth at 0.1 µM [4] was 94%. It also gave a growth at 1000 µM [5] of 13%, a growth at 1 µM [6] of 91% and a growth at 0.1 µM [7] of 94%. The GI50 [8] was 3.49 µM, the TGI [8] was > 100 µM and the CC50 [8, 17] was > 100 µM. It also gave a growth at 1000 µM [9] of 12%, a growth at 0.1 µM [10] of 94% and a growth at 0.1 µM [11] of 102%. The growth at 100 µM [12] was 41%, the growth at 1000 µM [13] was 13% and the growth at 10 µM [14] was 53%. For the same molecule, the growth at 0.1 µM [15] was 110% and the growth at 100 µM [16] was 57%.

From ChEMBL document CHEMBL1154822, “Synthesis and antiproliferative activity of 7-azaindirubin-3'-oxime, a 7-aza isostere of the natural indirubin pharmacophore” (J Nat Prod, 2009)
